Test results taken from US11712438B2, “Phenyl derivatives as PGE2 receptor modulators” (IDORSIA PHARMACEUTICALS LTD, priority 2017, dated 2023).

Columns and labels:
Assay in all cases: cell-based
PTGER2 (EP2) = PTGER2 (EP2) (Homo sapiens, UniProt P43116)
PTRGER4 (EP4) = PTRGER4 (EP4) (Homo sapiens, UniProt P35408);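 note: assay plate preincubated 15 min at 37 °C, after which PGE2 was added at 20 nM final and incubation continued 120 min at 37 °C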
EP2 = EP2 (Homo sapiens, UniProt P43116);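 note: SF295 glioblastoma cells with endogenous EP2 only, PGE2-stimulated cAMP accumulation read by HTRF competitive immunoassay, 45 min pre-incubation then 30 min at room temperature, IBMX in buffer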
Procedure: The antagonistic activities of the compounds of formula (I) on the EP2 and EP4 receptors are also determined in accordance with the following experimental method.
Human tumor cell lines expressing endogenously either EP4 or EP2 are used and cAMP accumulation in cells upon PGE2 stimulation is monitored. SF295 glioblastoma cells express high endogenous EP2 and no EP4,whereas BT549 breast cancer cells, express high endogenous EP4 levels and very low EP2 levels.
As a detection method for cAMP the HTRF (homogeneous time resolved fluorescence) Cisbio kit (HTRF cAMP dynamic 2 kit 20′000 tests Cisbio Cat. #62AM4PEC) was used, which is based on a competitive immunoassay using a Cryptate-labeled anti-cAMP antibody and d2-labeled cAMP. Native cAMP produced by cells or unlabeled cAMP (for the standard curve) compete with exogenously added d2-labeled cAMP (acceptor) for binding to monoclonal anti-cAMP-Eu3+ Cryptate (donor). A FRET signal (Fluorescence Resonance Energy Transfer) is obtained only if the labeled anti-cAMP antibody binds the d2 labelled cAMP, thus the specific signal (i.e. energy transfer) is inversely proportional to the concentration of cAMP in the standard or sample.
The SF295 cells (NCI/No. 0503170) are detached from culture dishes with a cell dissociation buffer (Invitrogen, 13151-014), and collected in growing medium (GM: RPM11640 (Invitrogen 21875)/10% FCS, 1% Penicilin/streptomycin). Cells are counted washed and resuspended in assay buffer (AB; HBSS, 20 mM HEPES, 0.2% BSA; 2 mM IBMX). 4′000 cells in 5 μl of AB are seeded per well of a small volume 384 well plate (black with flat bottom, Greiner 784076).
PGE2 (Cayman 14010, stock solution: 750 in DMSO) is used as agonist at 75 nM final concentration, corresponding to EC80.
Two point five microliters of diluted compounds are transferred into the assay plate. Plate is pre-incubated 45 minutes at room temperature. Subsequently, 2.5 microliters of PGE2 (final conc. 75 nM) are transferred into the assay plate. Plate is incubated 30 minutes at room temperature.
For each compound concentration the percentage of cAMP compared to DMSO control value as average±STDEV (each concentration is measured in duplicate) is calculated.

EP4 = EP4 (Homo sapiens, UniProt P35408);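 note: inhibition of PGE2-evoked (6 nM) cAMP accumulation in BT549 breast cancer cells endogenously expressing EP4, cAMP read by HTRF competitive immunoassay after 30 min at room temperature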
Chain of EP4 (P35408 whole entry): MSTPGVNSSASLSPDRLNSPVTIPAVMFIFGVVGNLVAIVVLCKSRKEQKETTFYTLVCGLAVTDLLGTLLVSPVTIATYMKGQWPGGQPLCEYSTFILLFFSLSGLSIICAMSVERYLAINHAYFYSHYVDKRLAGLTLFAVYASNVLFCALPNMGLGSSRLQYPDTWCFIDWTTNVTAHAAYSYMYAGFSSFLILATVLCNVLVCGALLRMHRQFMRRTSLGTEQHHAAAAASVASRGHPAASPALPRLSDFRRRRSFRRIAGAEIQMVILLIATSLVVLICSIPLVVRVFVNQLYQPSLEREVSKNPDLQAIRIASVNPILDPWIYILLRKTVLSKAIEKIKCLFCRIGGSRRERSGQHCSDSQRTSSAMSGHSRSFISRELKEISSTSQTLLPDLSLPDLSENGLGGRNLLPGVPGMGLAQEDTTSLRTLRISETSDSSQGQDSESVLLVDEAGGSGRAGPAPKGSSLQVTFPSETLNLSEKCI

Chain of PTRGER4 (EP4) (P35408 whole entry): as above
Chain of PTGER2 (EP2) (P43116 whole entry): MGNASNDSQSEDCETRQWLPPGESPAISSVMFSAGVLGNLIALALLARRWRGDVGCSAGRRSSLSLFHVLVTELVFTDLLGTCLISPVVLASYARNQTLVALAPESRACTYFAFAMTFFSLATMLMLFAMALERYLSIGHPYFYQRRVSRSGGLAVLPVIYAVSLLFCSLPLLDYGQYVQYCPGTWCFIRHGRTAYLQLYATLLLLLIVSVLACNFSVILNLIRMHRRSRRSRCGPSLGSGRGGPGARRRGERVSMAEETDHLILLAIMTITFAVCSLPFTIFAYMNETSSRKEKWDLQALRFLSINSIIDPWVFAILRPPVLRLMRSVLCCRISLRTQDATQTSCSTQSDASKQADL
Chain of EP2 (P43116 whole entry): as above

Row | SMILES | IC50 (PTGER2 (EP2)) [nM] | IC50 (PTRGER4 (EP4)) [nM] | IC50 (EP2) [nM] | IC50 (EP4) [nM]
1 | O=C(O)c1ccc(-c2cc(NCCc3c(F)cc(Br)cc3F)ncn2)cc1OC(F)F [Example 41, 4-{6-[2-(4-Bromo-2,6-difluoro-phenyl)-ethylamino]-pyrimidin-4-yl}-2-difluoromethoxy-benzoic acid] | 92 | 342 | 20 | 107
2 | O=C(O)c1ccc(-c2cc(NCCc3c(F)cc(Br)cc3F)ncn2)cc1OC1CCC1 [Example 42, 4-{6-[2-(4-Bromo-2,6-difluoro-phenyl)-ethylamino]-pyrimidin-4-yl}-2-cyclobutoxy-benzoic acid] | 59 | 241 | 50 | 297
3 | CCCCOc1cc(-c2cc(NCCc3c(F)cc(Br)cc3F)ncn2)ccc1C(=O)O [Example 43, 4-{6-[2-(4-Bromo-2,6-difluoro-phenyl)-ethylamino]-pyrimidin-4-yl}-2-butoxy-benzoic acid] | 55 | 208 | 66 | 514
4 | CCOc1cc(-c2cc(NCCc3c(F)cc(Br)cc3F)ncn2)sc1CCC(=O)O [Example 44, 3-(5-{6-[2-(4-Bromo-2,6-difluoro-phenyl)-ethylamino]-pyrimidin-4-yl}-3-ethoxy-thiophen-2yl)-propionic acid] | 44 | 62 | 120 | 38
5 | CCOc1cc(-c2cc(NCCc3c(F)cc(Br)cc3F)ncn2)ccc1OCCC(=O)O [Example 45, 3-(4-{6-[2-(4-Bromo-2,6-difluoro-phenyl)-ethylamino]-pyrimidin-4-yl}-2-ethoxy-phenoxy)-propionic acid] | 81 | 50 | 184 | 165
6 | O=C(O)c1cccc2[nH]c(-c3cc(NCCc4c(F)cc(Br)cc4F)ncn3)cc12 [Example 46, 2-{6-[2-(4-Bromo-2,6-difluoro-phenyl)-ethylamino]-pyrimidin-4-yl}-1H-indole-4-carboxylic acid] | 105 | 148 | 303 | 470
7 | CCOc1cc(-c2cc(NCCc3c(F)cc(Br)cc3F)ncn2)sc1/C=C/C(=O)O [Example 47, (E)-3-(5-{6-[2-(4-Bromo-2,6-difluoro-phenyl)-ethylamino]-pyrimidin-4-yl}-3-ethoxy-thiophen-2yl)-acrylic acid] | 50 | 11 | 129 | 85
8 | CCOc1cc(-c2cc(NCCc3c(F)cc(Br)cc3F)ncn2)sc1CC(=O)O [Example 48, (5-{6-[2-(4-Bromo-2,6-difluoro-phenyl)-ethylamino]-pyrimidin-4-yl}-3-ethoxy-thiophen-2-yl)-acetic acid] | 28 | 25 | 46 | 51
9 | CCOc1cc(-c2cc(NCCc3c(F)cc(Br)cc3F)ncn2)ccc1CC(=O)O [Example 49, (4-{6-[2-(4-Bromo-2,6-difluoro-phenyl)-ethylamino]-pyrimidin-4-yl}-2-ethoxy-phenyl)-acetic acid] | 139 | 143 | 246 | 159
10 | CCOc1cc(-c2cc(NCCc3ccc(Br)cc3OC)ncn2)ccc1C(=O)O [Example 50, 4-{6-[2-(4-Bromo-2-methoxy-phenyl)-ethylamino]-pyrimidin-4-yl}-2-ethoxy-benzoic acid] | 264 | 1310 | 259 | 910
11 | CCc1cc(-c2cc(NCCc3c(F)cccc3F)ncn2)sc1C(=O)O [Example 53, 5-{6-[2-(2,6-Difluoro-phenyl)-ethylamino]-pyrimidin-4-yl}-3-ethyl-thiophene-2-carboxylic acid] | 437 | 472 | 63 | 221
12 | CCOc1cc(-c2cc(NCCc3ccc(Br)cc3)ncn2)sc1C(=O)O [Example 54, 5-{6-[2-(4-Bromo-phenyl)-ethylamino]-pyrimidin-4-yl}-3-ethoxy-thiophene-2-carboxylic acid] | 60 | 17 | 31 | 10
13 | CCOc1cc(-c2cc(NCCc3ccccc3C)ncn2)sc1C(=O)O [Example 55, 3-Ethoxy-5-[6-(2-o-tolyl-ethylamino)-pyrimidin-4-yl]-thiophene-2-carboxylic acid] | 89 | 1000 | 65 | 396
14 | CCOc1cc(-c2cc(NCCc3ccccc3F)ncn2)sc1C(=O)O [Example 56, 3-Ethoxy-5-{6-[2-(2-fluoro-phenyl)-ethylamino]-pyrimidin-4-yl}-thiophene-2-carboxylic acid] | 717 | 3030 | 512 | 775
15 | CCOc1cc(-c2cc(NCCc3cccc(OC)c3)ncn2)sc1C(=O)O [Example 59, 3-Ethoxy-5-{6-[2-(3-methoxy-phenyl)-ethylamino]-pyrimidin-4-yl}-thiophene-2-carboxylic acid] | 359 | 169 | 131 | 51
16 | Cc1ccc(CCNc2cc(-c3cc(C(F)(F)F)c(C(=O)O)s3)ncn2)cc1 [Example 62, 5-[6-(2-p-Tolyl-ethylamino)-pyrimidin-4-yl]-3-trifluoromethyl-thiophene-2-carboxylic acid] | 324 | 108 | 176 | 79
17 | Cc1ccc(CCNc2cc(-c3cc(C(F)(F)F)c(C(=O)O)s3)ncn2)c(C)c1 [Example 64, 5-{6-[2-(2,4-Dimethyl-phenyl)-ethylamino]-pyrimidin-4-yl}-3-trifluoromethyl-thiophene-2-carboxylic acid] | 316 | 205 | 244 | 38
18 | CCOc1cc(-c2cc(NCCc3ccc(Cl)cc3[N+](=O)[O-])ncn2)sc1C(=O)O [Example 65, 5-{6-[2-(4-Chloro-2-nitro-phenyl)-ethylamino]-pyrimidin-4-yl}-3-ethoxy-thiophene-2-carboxylic acid] | 111 | 136 | 102 | 53
19 | CCOc1cc(-c2cc(NCCc3ccc(Cl)cc3Cl)ncn2)sc1C(=O)O [Example 66, 5-{6-[2-(2,4-Dichloro-phenyl)-ethylamino]-pyrimidin-4-yl}-3-ethoxy-thiophene-2-carboxylic acid] | 16 | 133 | 27 | 53
20 | CCOc1cc(-c2cc(NCCc3ccc(C)c(C)c3)ncn2)sc1C(=O)O [Example 68, 5-{6-[2-(3,4-Dimethyl-phenyl)-ethylamino]-pyrimidin-4-yl}-3-ethoxy-thiophene-2-carboxylic acid] | 145 | 33 | 165 | 25
21 | CCOc1cc(-c2cc(NCCc3cc(Br)ccc3OC)ncn2)sc1C(=O)O [Example 71, 5-{6-[2-(5-Bromo-2-methoxy-phenyl)-ethylamino]-pyrimidin-4-yl}-3-ethoxy-thiophene-2-carboxylic acid] | 85 | 100 | 70 | 53
22 | CCOc1cc(-c2cc(NCCc3cc(OC)ccc3OC)ncn2)sc1C(=O)O [Example 72, 5-{6-[2-(2,5-Dimethoxy-phenyl)-ethylamino]-pyrimidin-4-yl}-3-ethoxy-thiophene-2-carboxylic acid] | 77 | 104 | 40 | 42
23 | CCOc1cc(-c2cc(NCCc3ccc(OC)cc3OC)ncn2)sc1C(=O)O [Example 73, 5-{6-[2-(2,4-Dimethoxy-phenyl)-ethylamino]-pyrimidin-4-yl}-3-ethoxy-thiophene-2-carboxylic acid] | 54 | 136 | 30 | 35
24 | CCOc1cc(-c2cc(NCCc3ccccc3)ncn2)sc1C(=O)O [Example 75, 3-Ethoxy-5-(6-phenethylamino-pyrimidin-4-yl)-thiophene-2-carboxylic acid] | 727 | 2180 | 568 | 918
25 | CCOc1cc(-c2cc(NCCc3cccc(C(=O)OC)c3)ncn2)sc1C(=O)O [Example 76, 3-Ethoxy-5-{6-[2-(3-methoxycarbonyl-phenyl)-ethylamino]-pyrimidin-4-yl}-thiophene-2-carboxylic acid] | 488 | 310 | 234 | 88
26 | CCOc1cc(-c2cc(NCCc3ccc(Cl)cc3)ncn2)sc1C(=O)O [Example 82, 5-{6-[2-(4-Chloro-phenyl)-ethylamino]-pyrimidin-4-yl}-3-ethoxy-thiophene-2-carboxylic acid] | 74 | 103 | 66 | 46
27 | CCOc1cc(Br)ccc1CCNc1cc(-c2cc(OCC)c(-c3noc(=O)[nH]3)s2)ncn1 [Example 85, 3-(5-{6-[2-(4-Bromo-2-ethoxy-phenyl)-ethylamino]-pyrimidin-4-yl}-3-ethoxy-thiophen-2-yl)-[1,2,4]oxadiazol-5(4H)-one] | 8 | 6 | 7 | 12
28 | CCOc1cc(-c2cc(NCCc3c(F)cc(Cl)cc3OC)ncn2)sc1-c1noc(=O)[nH]1 [Example 86, 3-(5-{6-[2-(4-Chloro-2-fluoro-6-methoxy-phenyl)-ethylamino]-pyrimidin-4-yl}-3-ethoxy-thiophen-2yl)-[1,2,4]oxadiazol-5(4H)-one] | 16 | 30 | 84 | 89
29 | CCOc1cc(-c2cc(NCCc3c(F)cc(Br)cc3OC)ncn2)sc1-c1noc(=O)[nH]1 [Example 87, 3-(5-{6-[2-(4-Bromo-2-fluoro-6-methoxy-phenyl)-ethylamino]-pyrimidin-4-yl}-3-ethoxy-thiophen-2yl)-[1,2,4]oxadiazol-5(4H)-one] | 11 | 5 | 28 | 17
